From patent US9505795B2, “Method for producing scyllo-inositol” (Asahi Kasei Chemicals Corporation, priority 2012, dated 2016)

Columns and labels:
[1] = water solubility compared with scyllo-inositol; format: physicochemical; conditions: 25° C., W/V; ratio to scyllo-inositol
From the text: Since the scyllo-inositol derivative of the present invention can be produced and treated at high concentration in an aqueous solution, producing scyllo-inositol by obtaining the scyllo-inositol derivative of the present invention and treating it enzymatically has many advantages. Such methods are therefore one preferred method of utilizing the scyllo-inositol derivative of the present invention.

[2] = system: amyloid β protein; conditions: reported in Non-patent Reference 1; cited from earlier work

SMILES: OC[C@@H]1O[C@@H](O[C@H]2[C@H](O)[C@H](O)[C@H](O)[C@@H](O)[C@H]2O)[C@@H](O)[C@@H](O)[C@@H]1O [scyllo-inositol derivative, 1-O-β-D-glucopyranosyl-scyllo-inositol]
- water solubility relative to the original scyllo-inositol [1]: at least four

SMILES: O[C@H]1[C@H](O)[C@@H](O)[C@H](O)[C@@H](O)[C@@H]1O [scyllo-inositol, cis-1,3,5-trans-2,4,6-cyclohexanehexyl]
- effect on amyloid β protein aggregation [2]: inhibitory effect
